# Source: US4414216A, “Tetrahydrofuran compounds and analogs thereof” (Yoshitomi Phamaceutical Industries, Ltd., priority 1981, dated 1983)
# Where two headings read alike, the source gives them in different places.
# Key:
# [1] = test system: Motor activity (apomorphine hydrochloride); assay: Antiapomorphine effect, Experiment 1: motor activity (Automex) after apomorphine; format: in vivo, male dd mice; details: 30 mg/kg intraperitoneal, 30 min before 0.5 mg/kg s.c. apomorphine hydrochloride, activity during 30 minutes, control 566
# Method: (§1) Antiapomorphine effect was measured by the following methods.
# Motor activity was measured with Automex (Columbus Instruments, U.S.A.) in two groups of 3 male dd mice. Thirty minutes after intraperitoneal administration of each test compound (30 mg/kg), 0.5 mg/kg of apomorphine hydrochloride was injected subcutaneously. Immediately after the apomorphine injection, the animals were placed in the transparent plastic cage (26×42×20 cm) and motor activity during 30 minutes was measured. Student's was calculated to indicate the level of significance of the change from control.
# [2] = test system: Motor activity (apomorphine hydrochloride); assay: Antiapomorphine effect, Experiment 2: motor activity (Animex) after apomorphine, ED50; format: in vivo, male dd mice; details: Mus musculus, read-out: ED50 (dose which reduced the motor activity by 50% as compared with control)
# Method: as §1
# Motor activity was measured with Animex (Columbus Instruments, U.S.A.) in three groups of 5 male dd mice. Sixty minutes after oral administration of each test compound, 0.5 mg/kg of apomorphine hydrochloride was injected subcutaneously. The measurement of motor activity during 20 minutes started just after the apomorphine injection. ED50 was determined graphically as the dose which reduced the motor activity by 50% as compared with control.
SMILES,Motor Activity [1],ED50 ([2]; po) [mg/kg],"ED50 ([2]; Experiment 2, oral, 60 min before 0.5 mg/kg s.c. apomorphine hydrochloride, activity during 20 minutes) [mg/kg]"
O=c1[nH]c2cc(Cl)ccc2n1C1CCN(C[C@@H]2CO[C@H](c3ccc(F)cc3)C2)CC1 (relative stereo) [F],5,2.4,
O=c1[nH]c2cc(Cl)ccc2n1C1CCN(C[C@H]2CO[C@H](c3ccc(F)cc3)C2)CC1 (relative stereo) [G],8,0.9,
Fc1ccc(C2CC(CN3CCC(n4c(=S)[nH]c5ccccc54)CC3)CO2)cc1 (stereo not shown) [A],1,3.2,
O=c1[nH]c2ccccc2n1C1CCN(CC2COC(c3ccc(F)cc3)C2)CC1 (stereo not shown) [B],4,2.8,
O=C1NCN(c2ccccc2)C12CCN(CC1COC(c3ccc(F)cc3)C1)CC2 (stereo not shown) [C],0,1.4,
O=C1CCN(C2CCN(CC3COC(c4ccc(F)cc4)C3)CC2)C(=O)N1c1ccccc1 (stereo not shown) [D],28,,25
O=c1[nH]c2cc(Cl)ccc2n1C1CCN(CC2COC(c3ccc(F)cc3)C2)CC1 (stereo not shown) [E],23,0.4,
O=c1[nH]c2cc(Cl)ccc2n1C1CCN(CC2CCC(c3ccc(F)cc3)O2)CC1 (stereo not shown) [H],5,12,
